ChEMBL document CHEMBL5143555, “Potentiating the intracellular killing of Staphylococcus aureus by dihydroquinazoline analogues as NorA efflux pump inhibitor” (Bioorg Med Chem, 2022)

Assays:
[1] = test system: Staphylococcus aureus; test: Bactericidal activity against Staphylococcus aureus 1199B assessed as log reduction in bacterial count at 50 ug/mL measured after 8 hrs by time-kill kinetics assay; assay type: functional; conditions: dose 50 µg/ml
[2] = test system: Staphylococcus aureus; test: Antibacterial activity against Staphylococcus aureus 1199B measured after 24 hrs by Muller Hinton broth based MTT assay; assay type: functional

Question: `CC[n+]1c(-c2ccccc2)c2cc(N)ccc2c2ccc(N)cc21.[Br-]` [HOMIDIUM BROMIDE] was tested. Which Activity [1] did it give?
Answer: >3 log10CFU/ml

Question: And the MIC [2]?
Answer: 50 µg/mL
